The values below come from patent publication US20180028480A1, “METHODS OF REDUCING OR PREVENTING OXIDATIVE MODIFICATION OF MEMBRANE POLYUNSATURATED FATTY ACIDS” (Amarin Pharmaceuticals Ireland Limited, priority 2015, published 2018).

The nature of experiment [1]: X-ray diffraction of glucose-treated DLPC/cholesterol membranes under oxidative conditions (Example 8). To be noted: 10.0 μM; 0.6 C/P; glucose-induced lipid peroxidation 72 hours (FIG. 14). The procedure:
Values are reported as mean±S.D. (N=3).
[…] Membranes were reconstituted from DLPC and cholesterol at a C/P mole ratio of 0.6:1 and treated with the various agents to achieve a total drug-to-phospholipid mole ratio of 1:30.
(§1) Multilamellar vesicles (MLVs) were prepared as binary mixtures of POPC and cholesterol at 50 mol %. MLVs with DLPC and cholesterol at cholesterol-to-phospholipid (C/P) mole ratios of 0.1:1 to 1.1:1 were also prepared in a similar manner. Component lipids (in chloroform) were transferred to borosilicate culture tubes and combined with vehicle (ethanol) or an equal volume of EPA, DHA, fenofibrate, niacin or gemfibrozil stock solution(s) and adjusted to achieve a drug-to-phospholipid (D/P) mole ratio of 1:30. Membranes reconstituted from POPC and cholesterol (at 50 mol % cholesterol) were treated with each of the various agents at 5 mol %. Samples were then shell-dried under nitrogen gas and placed under vacuum for 3 hours to remove residual solvent.
After drying, each sample was resuspended in glucose-free or glucose-containing saline buffer to yield a final phospholipid concentration of 2.5 mg/mL. Lipid suspensions were then vortexed for 3 minutes at ambient temperature to form MLVs.
Membrane samples were oriented for x-ray diffraction analysis as described in Mason, et al., J. Biol. Chem., vol. 281, pages 9337-45 (2006). Briefly, 100 μL aliquots of each MLV preparation (containing 250 μg of phospholipid) were transferred to Lucite sedimentation cells fitted with a removable aluminum foil substrate designed to collect MLVs into a single membrane pellet upon centrifugation. Samples were then loaded into a Sorvall AH-629 swinging bucket ultracentrifuge rotor (DuPont Corp., Wilmington, Del.) and centrifuged at 35,000 g, 5° C., for 1.5 hours.
Following membrane orientation, sample supernatants were aspirated and aluminum foil substrates mounted onto curved glass slides. The membrane samples were then placed in hermetically sealed containers in which temperature and relative humidity were controlled during x-ray diffraction analysis. Data reported in this study were collected at 20° C. and 74% relative humidity.
This technique allows for precise measurement of the unit cell periodicity, or d-space, of the membrane lipid bilayer, which is the distance from the center of one lipid bilayer to the next, including surface hydration.
The presence of cholesterol domains in a given membrane sample results in the production of distinct Bragg (diffraction) peaks that have singular periodicity values of 34 Å and 17 Å. These peaks are typically referred to as first- and second-order cholesterol domain peaks.

Experiment [2] is described as follows: Fluorescence anisotropy, DPH apparent rotational correlation time (Example 8). The note with it: POPC, 0 or 50 mol % cholesterol; increasing omega-3 fatty acid concentrations (FIGS. 16A-16B). The source says:
FIGS. 16A-16B show the dose-dependent effects of EPA and DHA on the ARCT measured for DPH in POPC membranes prepared at either 0 or 50 mol % cholesterol. †p=0.0331 versus cognate DHA treatment (5 mol % omega-3 fatty acids (O3FA), no cholesterol); ^§p=0.0016 versus cognate DHA treatment (5 mol % O3FA, 50 mol % cholesterol); ^‡p=0.0032 versus cognate DHA treatment (10 mol % O3FA, 50 mol % cholesterol) (unpaired, two-tailed Student's t-test). Values are mean±S.D. (N=3).
Fluorescence anisotropy experiments were conducted using large unilamellar vesicles (LUVs) of 100 nm diameter of either POPC (or POPC/cholesterol) containing increasing concentrations of EPA or DHA and 1 mol % DPH fluorescent. Briefly, 640 nmol of total lipid (phospholipid and sterol) and 6.4 nmol of fluorescent probe was mixed well and dried under a stream of nitrogen while being warmed gently at 35° C. […]
In order to ensure that the anisotropy values measured for DPH are not influenced by lifetime-induced artifacts, the apparent (average) rotational correlation times (ARCT) were calculated using Perrin's equation: […]
where r0 is the limiting anisotropy of DPH, r is the steady state anisotropy, and is the mean fluorescence lifetime.
(In general: In fluorescence polarisation assays a small probe gives low polarisation when free and higher when bound to something large.)

For experiment [3], the system named is sdLDL. Description: Copper-induced sdLDL oxidation (Example 7). Format: biochemical, human. The note with it: 10.0 μM; copper-induced oxidation 1 hour. The procedure: An experiment to study the antioxidant effect of EPA in small dense LDL (“sdLDL”) was performed. sdLDL was isolated from human plasma by isopycnic centrifugation, separated into test samples of 200 μg/mL, and incubated at 37° C. for 30 min in the absence (vehicle) or presence of EPA, fenofibrate, niacin, or gemfibrozil, each at 10.0 μM. All samples, with the exception of non-oxidized sdLDL controls, were subjected to copper-induced oxidation for 1 hour. Human umbilical vein endothelial cells (HUVECs) were incubated with the various sdLDL samples, stimulated with calcium, and monitored for nitric oxide (NO) and peroxynitrite (ONOO^−) release using nanosensor technology.

Experiment [4] is described as follows: X-ray diffraction of cholesterol-enriched POPC membranes without oxidative conditions (Example 8). To be noted: 5 mol %, 50 mol % cholesterol, 15° C., 20° C. The procedure: Values are mean±S.D. (N=3).
FIGS. 18A-18C show representative x-ray diffraction patterns collected from cholesterol-enriched model membranes treated with vehicle (control), eicosapentaenoic acid (EPA), or docosahexaenoic acid (DHA) and examined at 15° C., 20° C., and 30° C. Membranes were reconstituted from POPC and cholesterol at 50 mol % cholesterol and treated with each of the various agents at 5 mol % (to match treatments used in corresponding lipid dynamics experiments). Each sample was maintained at 74% relative humidity by exposing the samples to a saturated solution of L-(+) tartaric acid. […] DHA, but not EPA or vehicle, induced the formation of cholesterol domains, which are indicated by a distinct set of diffraction peaks (shaded peaks) having a characteristic d-space value of 34 Å and shown to be stable over a broad range of temperatures.
as §1
Membrane samples were oriented for x-ray diffraction analysis as described in Mason, et al., J. Biol. Chem., vol. 281, pages 9337-45 (2006). Briefly, 100 μL aliquots of each MLV preparation (containing 250 μg of phospholipid) were transferred to Lucite sedimentation cells fitted with a removable aluminum foil substrate designed to collect MLVs into a single membrane pellet upon centrifugation. […]

Regarding `CC/C=C\C/C=C\C/C=C\C/C=C\C/C=C\CCCC(=O)O` [EPA, cis-5,8,11,14,17-Eicosapentaenoic acid], the “effect on d-space values” in experiment [1] is “significantly inhibited glucose-induced reductions and peroxidation-induced reductions in d-space values”. In addition, the “DPH apparent rotational correlation time / membrane fluidity” value in experiment [2] is “did not alter membrane fluidity”. For the same molecule, the “reduction of sdLDL oxidation compared to vehicle treatment” value in experiment [3] is listed as > 90%. In experiment [4] (30° C. (FIG. 17)), the “membrane width (d-space) compared to DHA or vehicle” value was “increased the width (d-space)”. Besides, the “membrane cholesterol domain formation” value in experiment [4] (30° C. (FIG. 18)) is reported as “did not induce cholesterol domain formation”.
